Data taken from patent US20250154611A1, “SYSTEMS AND METHODS TO DETECT STEM CELL STRESS AND USES THEREOF” (Wayne State University, priority 2014, published 2025).
Like-named read-outs stand apart in the source and are kept apart here.

Legend:
MEK1/2 = experiment: phospho-MEK1/2 western blot in mESCs under 200 mM sorbitol; format: cell-based, mouse; settings: returned to baseline by 20 min
Text: (§1) FIG. 14. […] Blots are representative of triplicate experiments. Phospho-proteins and their loading controls are grouped between black lines.
Hyperosmotic activation of signaling enzymes. […] Zhong, 2010; Xie, 2011. After screening 21 signaling kinases in 11 subfamilies using 14 inhibitors, 5 kinases in the mitogen activated protein kinase (MAPK) and PI3K families were identified as producing differentiation-priming effects in hyperosmotic conditions. To determine the kinetics of activation of these five kinases in the described system, mESCs were treated with 200 mM sorbitol for 1 hr. Expression levels of the activated (i.e., phosphorylated) enzymes were assayed by western blot analysis (FIG. 14), including phospho-p38MAPK, phospho-JNK, phospho-MEK1/2, and phospho-AKT (the downstream effector of PI3K signaling). Activated p38MAPK was 1st detected at 10 min of stimulation; activation persisted throughout 1 hr of stimulation. Similarly, activated JNK was 1st detected at 20 min of stimulation, and persisted throughout 1 hr of stimulation. Activated MEK1/2 and activated AKT were present endogenously at low levels at time zero; sorbitol stimulated higher activation levels of each.

p38MAPK = p38MAPK (Mus musculus, UniProt P47811); experiment: phospho-p38 western blot in mESCs under 200 mM sorbitol; format: cell-based; settings: 200 mM, persisted throughout 1 hr
Sequence of p38MAPK (P47811 whole entry): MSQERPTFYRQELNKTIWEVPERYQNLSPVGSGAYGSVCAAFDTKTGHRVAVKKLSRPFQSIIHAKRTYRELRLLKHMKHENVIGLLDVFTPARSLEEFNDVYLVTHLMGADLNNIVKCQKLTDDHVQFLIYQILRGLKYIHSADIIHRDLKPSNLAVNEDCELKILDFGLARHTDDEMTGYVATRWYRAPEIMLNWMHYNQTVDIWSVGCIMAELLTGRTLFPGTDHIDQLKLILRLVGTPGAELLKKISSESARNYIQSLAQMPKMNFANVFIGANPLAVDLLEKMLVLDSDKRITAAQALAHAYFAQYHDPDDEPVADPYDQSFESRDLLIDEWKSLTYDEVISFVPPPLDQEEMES
Protocol: as §1
FIG. 15. […] Blots are representative of triplicate experiments.
Hyperosmotic activation of signaling enzymes. […] Zhong, 2010; Xie, 2011. […] To determine the kinetics of activation of these five kinases in the described system, mESCs were treated with 200 mM sorbitol for 1 hr. Expression levels of the activated (i.e., phosphorylated) enzymes were assayed by western blot analysis (FIG. 14), including phospho-p38MAPK, phospho-JNK, phospho-MEK1/2, and phospho-AKT (the downstream effector of PI3K signaling).
Efficacy of enzyme inhibitors.

OC[C@@H](O)[C@@H](O)[C@H](O)[C@@H](O)CO [sorbitol]
time of increased MEK1/2 activation (MEK1/2): ≤ 10 min
time at which activated p38MAPK was first detected (p38MAPK): 10 min
lethality in mESCs (mESCs; 200 mM): nonlethal
lethality in mESCs (mESCs; 400 mM): lethal
